According to the OPERA property sets (Mansouri et al. 2018):

Row | SMILES | logP
1 | NC(=O)c1ccc(S(N)(=O)=O)cc1 | -0.83
2 | CCCCCCOc1ccc(S(N)(=O)=O)cc1[N+](=O)[O-] | 2.99
3 | CC(=O)c1cccc(S(N)(=O)=O)c1 | 0.21
4 | NC(=O)c1cccc(S(N)(=O)=O)c1 | -0.84
5 | CS(=O)(=O)Nc1ccc(S(N)(=O)=O)cc1 | -0.4
6 | COc1cccc(S(N)(=O)=O)c1 | 0.53
7 | NS(=O)(=O)c1cccc(I)c1 | 1.58
8 | CCCCOc1ccc(S(N)(=O)=O)cc1 | 2.05
9 | NS(=O)(=O)c1ccc(-c2ccccc2)cc1 | 2.24
10 | N#Cc1cccc(S(N)(=O)=O)c1 | 0.24
11 | NS(=O)(=O)c1cccc(Br)c1 | 1.35
12 | CC(=O)Nc1ccc(S(N)(=O)=O)cc1 | -0.04
13 | CCCCOc1cccc(S(N)(=O)=O)c1 | 2.06
